Settings: Liquid, Closed cell (Static) method

C=CCCCCCCCCCC [1-dodecene]
Settings	vapor or sublimation pressure [kPa]
430.38 K	21.7
443.18 K	33.6
453.99 K	44
459.86 K	52.6
464.81 K	61.6
470.91 K	70.7
476.45 K	80.8
480.78 K	90.2
484.11 K	100.7

c1ccc2sccc2c1 [benzo[b]thiophene]
Settings	vapor or sublimation pressure [kPa]
434.26 K	21.3
446.75 K	30.3
457.64 K	41.1
465.61 K	50.8
472.44 K	60.5
479.15 K	71.5
484.01 K	80.5
489.09 K	90.9
493.8 K	101.5

CCCCCCCCCCCC [dodecane]
Settings	vapor or sublimation pressure [kPa]
432.23 K	20.9
444.86 K	31
455.87 K	42.7
462.05 K	50.8
469.67 K	62.3
474.19 K	70.2
479.82 K	81
484.34 K	90.8
488.5 K	100.6

CCCCCCCCO [octan-1-ol]
Settings	vapor or sublimation pressure [kPa]
417.83 K	20.5
428.6 K	30.4
437.35 K	41.5
443.9 K	50.5
449.55 K	60.7
454.52 K	71
459.23 K	81
463.21 K	91.1
466.61 K	100.3

From the NIST ThermoML archive (doi:10.1016/j.fluid.2011.04.024)
